# In patent publication US20120276015A1, “Optical in vivo Imaging Contrast Agents and Methods of Use” (priority 2005, published 2012):
# Test system: sites of inflammation
# Assay: In vivo imaging of collagen-induced arthritis (CIA) mice, qualitative analysis of targeting
# Design: species or system Balb/c mice
# Conditions: inflamed paw
# Protocol: Inflammation was modeled by inducing polyarticular collagen-induced arthritis (CIA) in 4-6 week old female Balb/c mice (Charles River). Antibody mediated CIA was induced by intravenous (IV; tail vein) injection of 2 mg Arthrogen-CIA Monoclonal Antibody Blend (Chemicon). Three days after antibody treatment, each mouse received 50 μg Lipopolysaccharide (LPS; Chemicon) intraperitoneally (IP). Seven days after the initial injection, the mice had recovered from the LPS toxicity and symptoms of arthritis were observed. Mice were monitored daily and scored for paw and joint swelling based on the following scale: • 0: Normal • 1: Mild but definite swelling of ankle or wrist or swelling limited to individual digits • 2: Moderate redness and swelling of ankle and wrist • 3: Severe redness and swelling of the entire paw including digits (none of the study mice reached this stage)
# Mice were injected with the present contrast agent when they reached level 2, between five and ten days after the LPS injection.
# Contrast agents were introduced systemically by IV injection. A 29-guage needle was used to inject 100 μl of 1% solids in water (without buffer salts or saline) containing 2% Pluronic F-127 via the lateral tail vein. The tail was stroked lengthwise three times with an alcohol saturated pad to dilate the blood vessels prior to injection. […]
substance,measurement,value
BSA conjugate: BSA conjugate used as comparison contrast agent; labeled the whole paw,image resolution of labeling,labeled the whole paw
